Reference: patent US10752587B2, “Homobispiperidinyl derivatives as liver X receptor beta agonists, compositions and their use” (Merck Sharp & Dohme Corp., priority 2015, dated 2020)
Like-named read-outs stand apart in the source and are kept apart here.

Assays:
[1] = target: T1, glutathione-S-transferase (GST) tagged LXRbeta LBD (ligand binding domain) (Homo sapiens, UniProt P55055); test: LanthaScreen TR-FRET Liver X Receptor Coactivator Assay, co-activator recruitment to LXRbeta LBD; format: biochemical
T1 construct: purchased Invitrogen pv4658.pps
T1 sequence (P55055 222-460 limits assumed): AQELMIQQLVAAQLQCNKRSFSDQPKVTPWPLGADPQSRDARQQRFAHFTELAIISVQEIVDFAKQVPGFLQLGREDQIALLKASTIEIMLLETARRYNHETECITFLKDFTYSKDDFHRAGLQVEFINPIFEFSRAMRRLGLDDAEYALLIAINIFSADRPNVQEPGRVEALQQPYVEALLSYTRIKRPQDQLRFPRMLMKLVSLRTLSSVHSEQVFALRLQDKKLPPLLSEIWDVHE
How it was run: (§1)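 Efficacy (Emax) and inflection-point potency were scaled to reference agonist T0901317, acting on both LXR subtypes. Ligand-driven coactivator peptide recruitment was detected by TR-FRET after room-temperature incubation with terbium anti-GST antibody.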

[2] = target: T2, glutathione-S-transferase (GST) tagged LXRalpha LBD (ligand binding domain) (Homo sapiens, UniProt Q13133); test: LanthaScreen TR-FRET Liver X Receptor Coactivator Assay, co-activator recruitment to LXRalpha LBD; format: biochemical
T2 construct: purchased Invitrogen pv4655
T2 sequence (Q13133 209-447 limits assumed): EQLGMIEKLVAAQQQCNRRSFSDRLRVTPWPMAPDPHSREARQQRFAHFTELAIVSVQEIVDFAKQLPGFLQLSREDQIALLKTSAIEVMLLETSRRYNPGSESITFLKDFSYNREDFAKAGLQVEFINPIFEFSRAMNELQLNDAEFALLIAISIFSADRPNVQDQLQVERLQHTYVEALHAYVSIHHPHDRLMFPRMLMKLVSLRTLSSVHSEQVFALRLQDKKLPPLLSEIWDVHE
How it was run: as §1

[3] = efficacy at max dose, in relation to reference dual agonist T0901317
[4] = potency (Inflection Point, IP), co-activator recruitment to LXRalpha LBD, in relation to T0901317
[5] = efficacy at max dose, in relation to reference dual agonist T0901317, read-out: LXR beta Activity @ max dose (%)
[6] = potency (Inflection Point, IP), co-activator recruitment to LXRbeta LBD, in relation to T0901317, read-out: LXR beta IP
[7] = efficacy at max dose, in relation to reference dual agonist T0901317, read-out: LXR alpha Activity @ max dose (%)
[8] = potency (Inflection Point, IP), co-activator recruitment to LXRalpha LBD, in relation to T0901317, read-out: LXR alpha IP
[9] = co-activator recruitment to GST-LXRbeta LBD, TR-FRET, read-out: LXR beta IP (Inflection Point, potency)
[10] = efficacy in relation to reference dual agonist T0901317, read-out: LXR beta Activity @ max dose
[11] = efficacy in relation to reference dual agonist T0901317, read-out: LXR alpha Activity @ max dose

## CN(C)C(=O)c1ccc(N2CCC(CC3CCN(C(=O)[C@](O)(c4ccccc4)C(F)(F)C(F)(F)F)CC3)CC2)cc1Cl [Example 2-14, 2-chloro-N,N-dimethyl-4-[4-({1-[(2R)-3,3,4,4,4-pentafluoro-2-hydroxy-2-phenylbutanoyl]piperidin-4-yl}methyl)piperidin-1-yl]benzamide]
[1]; [3]
  LXR beta Activity @ max dose (%): 89%
[2]; [3]
  LXR alpha Activity @ max dose (%): 14%
[2]; [4]
  LXR alpha IP (nM): NO IP

## CN(C)C(=O)c1ccc(N2CCC(CC3CCN(C(=O)[C@](O)(c4ccccc4)C4CC4)CC3)CC2)cc1Cl [Example 2-105, 2-chloro-4-[4-({1-[(2R)-2-cyclopropyl-2-hydroxy-2-phenylacetyl]piperidin-4-yl}methyl)piperidin-1-yl]-N,N-dimethyl-benzamide]
[1]; LXR beta IP (nM), potency (Inflection Point, IP), co-activator recruitment to LXRbeta LBD, in relation to T0901317
  EC50: 21 nM
[1]; read-out: LXR beta Activity @ max dose (%)
  Emax: 48%
[2]; [4]
  LXR alpha IP (nM): NO IP
[2]; read-out: LXR alpha Activity @ max dose (%)
  Emax: 12%

## CN(C)C(=O)c1ccc(N2CCC(CC3CCN(C(=O)OC(C)(C)C)CC3)CC2)cc1Cl [Example 1-1, tert-butyl 4-((1-(3-chloro-4-(dimethylcarbamoyl)phenyl)piperidin-4-yl)methyl)piperidine-1-carboxylate]
[1]; [5]
  Emax: 63%
[1]; [6]
  EC50: 136 nM
[2]; [7]
  Emax: 22%
[2]; [8]
  EC50: 844 nM

## CN(C)C(=O)c1ccc(N2CCC(CC3CCN(C(=O)[C@](O)(c4cc(Cl)cc(Cl)c4)C(F)(F)F)CC3)CC2)cc1Cl [Example 2-93, 2-chloro-4-[4-({1-[(2R)-2-(3,5-dichloro-phenyl)-3,3,3-trifluoro-2-hydroxy-propanoyl]piperidin-4-yl}methyl)piperidin-1-yl]-N,N-dimethyl-benzamide]
[1]; [5]
  Emax: 59%
[1]; [6]
  EC50: 5 nM
[2]; [7]
  Emax: 7%
[2]; [4]
  LXR alpha IP (nM): NO IP

## CCc1cccc([C@@](O)(C(=O)N2CCC(CC3CCN(c4ccc(C(=O)N(C)C)cc4)CC3)CC2)C(F)(F)F)c1 [Example 2-141, 4-[4-({1-[(2R)-2-(3-ethyl-phenyl)-3,3,3-trifluoro-2-hydroxy-propanoyl]piperidin-4-yl}methyl)piperidin-1-yl]-N,N-dimethyl-benzamide]
[1]; [5]
  Emax: 51%
[1]; [6]
  EC50: 74 nM
[2]; [7]
  Emax: 12%
[2]; [4]
  LXR alpha IP (nM): NO IP

## CN(C)C(=O)c1ccc(N2CCC(CC3CCN(C(=O)[C@](N)(c4cc(Cl)cc(Cl)c4)C(F)(F)F)CC3)CC2)cc1Cl [Example 2-117, 4-[4-({1-[(2R)-2-amino-2-(3,5-dichloro-phenyl)-3,3,3-trifluoro-propanoyl]piperidin-4-yl}methyl)piperidin-1-yl]-2-chloro-N,N-dimethyl-benzamide]
[1]; [5]
  Emax: 125%
[1]; [6]
  EC50: 22 nM
[2]; [7]
  Emax: 29%
[2]; [8]
  EC50: 1010 nM

## CN(C)C(=O)c1ccc(N2CCC(CC3CCN(C(=O)C(O)(c4cc(Cl)cc(Cl)c4)C(F)(F)F)CC3)CC2)nc1Cl (centres unmarked) [Example 7-83, 2-chloro-6-[4-({1-[2-(3,5-dichlorophenyl)-3,3,3-trifluoro-2-hydroxypropanoyl]piperidin-4-yl}methyl)piperidin-1-yl]-N,N-dimethylpyridine-3-carboxamide]
[1]; [5]
  Emax: 53%
[1]; [6]
  EC50: 8 nM
[2]; [7]
  Emax: 13%
[2]; [4]
  LXR alpha IP (nM): NO IP

## COc1cccc([C@@](O)(C(=O)N2CCC(CC3CCN(c4ccc(C(=O)N(C)C)c(Cl)n4)CC3)CC2)C(F)(F)F)c1 [Example 7-52, 2-chloro-N,N-dimethyl-6-[4-({1-[(2R)-3,3,3-trifluoro-2-hydroxy-2-(3-methoxyphenyl)propanoyl]piperidin-4-yl}methyl)piperidin-1-yl]pyridine-3-carboxamide]
[1]; [5]
  Emax: 69%
[1]; [6]
  EC50: 5 nM
[2]; [7]
  Emax: 14%
[2]; [8]
  EC50: 120 nM

## COc1cccc([C@@](O)(C(=O)N2CCC(CC3CN(c4ccc(C(=O)N(C)C)c(OC)n4)C3)CC2)C(F)(F)F)c1 [Example 7-23, 2-methoxy-N,N-dimethyl-6-[3-({1-[(2R)-3,3,3-trifluoro-2-hydroxy-2-(3-methoxyphenyl)propanoyl]piperidin-4-yl}methyl)azetidin-1-yl]pyridine-3-carboxamide]
[1]; [5]
  Emax: 54%
[1]; [6]
  EC50: 1230 nM
[2]; [7]
  Emax: 0%
[2]; [4]
  LXR alpha IP (nM): NO IP

## Cc1cc(N2CCC(CC3CN(C(=O)[C@](O)(c4cc(F)cc(Cl)c4)C(F)(F)F)C3)CC2)ccc1C(=O)N(C)C [Example 2-81, 4-[4-({1-[(2R)-2-(3-chloro-5-fluorophenyl)-3,3,3-trifluoro-2-hydroxy-propanoyl]azetidin-3-yl}methyl)piperidin-1-yl]-N,N,2-trimethyl-benzamide]
[1]; [5]
  Emax: 103%
[1]; [6]
  EC50: 39 nM
[2]; [7]
  Emax: 40%
[2]; [8]
  EC50: 798 nM

## CCOc1cccc([C@@](O)(C(=O)N2CCC(CC3CCN(c4ccc(C(=O)NC)c(Cl)n4)CC3)CC2)C(F)(F)F)c1 [Example 7-137, 2-chloro-6-[4-({1-[(2R)-2-(3-ethoxyphenyl)-3,3,3-trifluoro-2-hydroxypropanoyl]piperidin-4-yl}methyl)piperidin-1-yl]-N-methylpyridine-3-carboxamide]
[1]; [5]
  Emax: 82%
[1]; [6]
  EC50: 23 nM
[2]; [7]
  Emax: 9%
[2]; [4]
  LXR alpha IP (nM): NO IP

## CCc1cccc([C@@](O)(C(=O)N2CCC(CC3CCN(c4ccc(C(=O)NC)c(Cl)c4)CC3)CC2)C(F)(F)F)c1 [Example 7-120, 2-chloro-4-[4-({1-[(2R)-2-(3-ethylphenyl)-3,3,3-trifluoro-2-hydroxypropanoyl]piperidin-4-yl}methyl)piperidin-1-yl]-N-methylbenzamide]
[1]; [5]
  Emax: 60%
[1]; [6]
  EC50: 22 nM
[2]; [7]
  Emax: 12%
[2]; [4]
  LXR alpha IP (nM): NO IP

## O=C(c1ccc(N2CCC(CC3CCN(C(=O)[C@](O)(c4cc(Cl)cc(Cl)c4)C(F)(F)F)CC3)CC2)cc1Cl)N1CC[C@@H](O)C1 [Example 4-22, (3R)-1-({2-chloro-4-[4-({1-[(2R)-2-(3,5-dichloro-phenyl)-3,3,3-trifluoro-2-hydroxypropanoyl]piperidin-4-yl}methyl)piperidin-1-yl]phenyl}carbonyl) pyrrolidin-3-ol]
[1]; [5]
  Emax: 38%
[1]; [6]
  EC50: 35 nM
[2]; [7]
  Emax: 0%
[2]; [4]
  LXR alpha IP (nM): NO IP

## CNC(=O)c1ccc(N2CCC(CC3CCN(C(=O)[C@](O)(c4cc(Cl)cc(Cl)c4)C(F)(F)F)CC3)CC2)nc1Cl [Example 7-134, 2-chloro-6-[4-({1-[(2R)-2-(3,5-dichlorophenyl)-3,3,3-trifluoro-2-hydroxypropanoyl]piperidin-4-yl}methyl)piperidin-1-yl]-N-methylpyridine-3-carboxamide]
[1]; [5]
  Emax: 78%
[1]; [6]
  EC50: 9 nM
[2]; [7]
  Emax: 14%
[2]; [4]
  LXR alpha IP (nM): NO IP

## CN(C)C(=O)c1ccc(N2CCC(CC3CCN(S(=O)(=O)c4ccccc4F)CC3)CC2)cc1Cl [Example 13-8, 2-chloro-4-[4-({1-[(2-fluorophenyl)sulfonyl]-piperidin-4-yl}methyl)-piperidin-1-yl]-N,N-dimethylbenzamide]
[1]; [9]
  EC50: 43 nM
[1]; [10]
  Emax: 95%
[2]; co-activator recruitment to GST-LXRalpha LBD, TR-FRET, read-out: LXR alpha IP (Inflection Point, potency)
  EC50: 935 nM
[2]; [11]
  Emax: 46%

## COc1cccc([C@@](O)(C(=O)N2CCC(CC3CCN(c4ccc(C(=O)N(C)C)c(Cl)c4)CC3)C2)C(F)(F)F)c1 (stereo partly drawn) [Example 2-72, 2-chloro-N,N-dimethyl-4-[4-({1-[(2R)-3,3,3-trifluoro-2-hydroxy-2-(3-methoxy-phenyl)propanoyl]pyrrolidin-3-yl}methyl)piperidin-1-yl]benzamide]
[1]; [5]
  Emax: 39%
[1]; [6]
  EC50: 74 nM
[2]; [7]
  Emax: 0%
[2]; [4]
  LXR alpha IP (nM): NO IP

## CN(C)C(=O)c1ccc(N2CCC(CC3CCN(S(=O)(=O)c4cccc(OC(F)F)c4)CC3)CC2)cc1Cl [Example 13-10, 2-chloro-4-{4[(1-{[3-(difluoromethoxy)-phenyl]sulfonyl}-piperidin-4-yl)methyl]-piperidin-1-yl}-N,N-dimethylbenzamide]
[1]; [9]
  EC50: 104 nM
[1]; [10]
  Emax: 52%
[2]; co-activator recruitment to GST-LXRalpha LBD, TR-FRET
  LXR alpha IP (Inflection Point, potency): NO IP
[2]; [11]
  Emax: 5%

## COc1cccc([C@@](O)(C(=O)N2CC(CC3CCN(c4ccc(C(=O)N(C)C)c(C)n4)CC3)C2)C(F)(F)F)c1 [Example 7-10, N,N,2-trimethyl-6-[4-({1-[(2R)-3,3,3-trifluoro-2-hydroxy-2-(3-methoxyphenyl)propanoyl]azetidin-3-yl}methyl)piperidin-1-yl]pyridine-3-carboxamide]
[1]; [5]
  Emax: 77%
[1]; [6]
  EC50: 136 nM
[2]; [7]
  Emax: 28%
[2]; [8]
  EC50: 20 nM
